The values that follow come from EP0346929B1, “Treating agent for Raynaud's disease” (DAIICHI PHARMACEUTICAL CO., LTD., priority 1988, dated 1989).

Structures are written as SMILES. Structures can show the parent of a compound that is named as a salt.

The assay has as its system Laurate-Induced Peripheral Arterial Occlusive Diseases in Rats. Nature of the assay: Effect on progression of laurate-induced peripheral arterial occlusive diseases in rats. Type of assay: in vivo. On the procedure: Effect on Progression of Laurate-Induced Peripheral Arterial Occlusive Diseases in Rats
Male Wister-Imamichi rats weighing from 370 to 422 g (purchased from Dobutsu Hanshoku Kenkyukai) were used as test animals.
Rats were anesthetized with pentobarbital (50 mg/kg, i.p.), and the right femoral artery was exposed by surgical incision. 0.1 mℓ of a sodium laurate solution (1 mg of lauric acid/mℓ-saline, pH=8.0) was injected to the right femoral artery, haemostasis was secured by application of a surgical binding "Alonalpha" (a trade name, produced by Toa Gosei Kagaku Co.) to the punctured site of the artery, and the incision was closed with the surgical binding. The animals were then fed ad lib.
The degree of the lesions was graded to 0 - IV, 4 days after the operation for gangrene and 6 days after the operation for mummification or falling off as follows: normal apperance, 0; the affected region was limited to the nail parts, I; to the fingers, II; to the whole paw, III; and extended to the lower leg, IV.
As a test compound, 6-(1-imidazolylmethyl)-5,6,7,8-tetrahydronaphthalene-2-carboxylic acid hydrochloride 1/2 hydrate (hereinafter referred to as Compound A) was dissolved in physiological saline and administered to the left femoral vein at a dose of 3 mg/5 mℓ/kg 5 minutes before the laurate injection to the femoral artery. The effect of the Compound A on suppression of the lesions were examined. The animals in control group were injected with 5 mℓ/kg of saline alone in place of the Compound A. The results obtained are shown in Table 1 below.

With `O=C(O)c1ccc2c(c1)CCC(Cn1ccnc1)C2` (centres unmarked) [Compound A, 6-(1-imidazolylmethyl)-5,6,7,8-tetrahydronaphthalene-2-carboxylic acid hydrochloride 1/2 hydrate], the “Number of Animals Suffering From: Gangrene After 4 Days, grade 0” value (grade 0 = normal apperance, 3 mg/5 mℓ/kg into left femoral vein 5 minutes before laurate injection, 4 days after operation) is 2. Also, the “Number of Animals Suffering From: Mummification or Falling Off After 6 Days, grade 0” value (grade 0 = normal apperance, 3 mg/5 mℓ/kg into left femoral vein 5 minutes before laurate injection, 6 days after operation) is listed as 2. For the setting “grade I = affected region limited to the nail parts, 3 mg/5 mℓ/kg into left femoral vein 5 minutes before laurate injection, 4 days after operation”, the “Number of Animals Suffering From: Gangrene After 4 Days, grade I” value is 3. Also, for the setting “grade I = affected region limited to the nail parts, 3 mg/5 mℓ/kg into left femoral vein 5 minutes before laurate injection, 6 days after operation”, the “Number of Animals Suffering From: Mummification or Falling Off After 6 Days, grade I” value is listed as 1. In addition, the “Number of Animals Suffering From: Gangrene After 4 Days, grade II” value (grade II = affected region limited to the fingers, 3 mg/5 mℓ/kg into left femoral vein 5 minutes before laurate injection, 4 days after operation) is 2. In addition, the “Number of Animals Suffering From: Mummification or Falling Off After 6 Days, grade II” value (grade II = affected region limited to the fingers, 3 mg/5 mℓ/kg into left femoral vein 5 minutes before laurate injection, 6 days after operation) came out at 3. For the same compound, the “Number of Animals Suffering From: Mummification or Falling Off After 6 Days, grade III” value (grade III = affected region limited to the whole paw, 3 mg/5 mℓ/kg into left femoral vein 5 minutes before laurate injection, 6 days after operation) was 1. Moreover, the grade of lesions result (intravenous injection of 3 mg/kg, compared with control group) is recorded as “reduced the grade of lesions”.
